From patent publication US10231985B2, “Compounds and compositions comprising such compounds for the prevention or treatment of dyslipidaemias” (CENTRE NATIONAL DE LA RECHERCHE SCIENTIFIQUE, priority 2013, dated 2019)

Columns and labels:
[1] = test system: phospholipids of the cellular membranes (hem1Δ strain); test: Fatty acid content of cellular phospholipids (lipid extraction, ESI-MS); assay type: cell-based, Saccharomyces cerevisiae
Experimental: The hem1Δ strain is grown in liquid medium (YPG^A, YPG^+, or YPG^++200 μM compound to be tested) under aerobic conditions, with shaking and at 28° C. for 7 hours, from an initial cell concentration of 2×10^6 cells/ml. At the conclusion of the culture, 10^8 cells are collected in order to carry out a total lipid extraction. After having suspended the cells in 1 ml of distilled water at 4° C., 500 μl of glass beads (Ø 0.6 mm) are added and the whole then undergoes 3 sequences of 20 seconds at 5000 rpm in a shaker (the tubes are kept on ice between each of the 3 sequences). The cell lysate then obtained, supplemented with bead-washing solution (1 ml), is then transferred to a 40 ml glass tube (Corex™) before carrying out the lipid extraction using a 2:1 (v/v) methanol:chloroform ratio. First, 6 ml of methanol is added and the whole is vortexed for 30 seconds and then incubated for 15 minutes at 65° C. Once the mixture cools to room temperature, 3 ml of chloroform is added and then the whole is vortexed again for 30 seconds before allowing the extraction to proceed for 16 hours. Later, the sample is centrifuged for 12 minutes at 10000 g before transferring the supernatant to a new Corex™ tube. After adding 2 ml of chloroform and then 4 ml of distilled water, the whole is vortexed for 30 seconds and then centrifuged for 8 minutes at 3000 g. After removing the resulting upper phase, the lower organic phase is collected in a glass hemolysis tube. Finally, the solvent is evaporated under a stream of nitrogen at 80° C. in order to obtain the total cellular lipid samples.
The total cellular lipid samples are resuspended in 1 ml of dichloromethane while being vortexed for 30 seconds. The whole is deposited on a silica column (BOND ELUT-SI, 100 mg 1 ml) preconditioned successively with 3 ml of methanol and then 2 ml of dichloromethane. The fraction retained by the column is then washed successively with 2 ml of dichloromethane and then 3 ml of acetone. Finally, 2 ml of a 50:45:5 (v/v/v) chloroform/methanol/water mixture is deposited on the column and the phospholipids thus eluted are collected in a glass hemolysis tube. The solvent is evaporated under nitrogen at 80° C. in order to obtain the cellular phospholipid samples.
Once resuspended in 100 μl of the mixture Mix^− (2:1:1 (v/v/v) isopropanol/acetonitrile/water+1% (v/v) triethylamine) or the mixture Mix^+ (2:1:1 (v/v/v) isopropanol/acetonitrile/water+1% (v/v) formic acid), the samples are analyzed by electrospray ionization mass spectrometry (ESI-MS) in negative or positive mode, respectively, and the results obtained are used to analyze the fatty acid content of the various phospholipid species.

MIN6 pancreatic β-cells = test: Monitoring of insulin maturation (Western blot, anti-insulin); assay type: cell-based, mouse; conditions: MIN6, 400 μM palmitic acid 48 hours, 200 μM compound during final 24 hours
Experimental: Pancreatic β-cells, MIN6, were grown under control conditions (0) or, alternatively, in the presence of an exogenous source of 400 μM palmitic acid (P), for 48 hours, as described by Boslem et al. (2011), in order to generate lipointoxication conditions. During the final 24 hours of growth, 200 μM OAG, LPA or mannide monooleate was added or not as mentioned.
In the manner of that described above for the lipointoxication of BRIN-BD11 cells, the MIN6 cell line is grown in complete DMEM-High Glucose medium […], supplemented with 10% (v/v) fetal calf serum (FCS), 15 mM HEPES, 100 U/ml penicillin and 100 μg/ml streptomycin, and lipointoxication is induced by exposure to 400 μM palmitic acid, coupled to BSA (0.92% (w/v) final), for 48 hours, with or without the addition of the compound of interest (see Boslem et al., 2011). The cells are then collected and a Western blot is carried out as indicated above, using anti-insulin antibodies in order to follow the maturation of proinsulin to insulin.

[2] = test system: unfolded protein response (UPR); test: Test of UPR triggering (4xUPRE-lacZ, β-galactosidase activity) in hem1Δ yeast; assay type: cell-based, Saccharomyces cerevisiae; conditions: 200 μM, liquid medium inducing SFA accumulation
Source text: A plasmid construction bearing a fusion gene, corresponding to the coding sequence of the lacZ gene placed under the control of an artificial promoter containing four UPR elements (UPRE), was introduced into a hem1Δ yeast strain, as described by Pineau et al. (2009). During UPR induction, the transcription factor Hac1p/XBP1p is activated and binds to the fusion gene UPRE, leading to the transcription of the lacZ gene. As lacZ encodes β-galactosidase, the level of UPR induction is thus measured by detecting the corresponding enzyme activity. The hem1Δ yeast strain was grown in liquid medium inducing SFA accumulation with no other addition (0), or in the same medium supplemented with 200 μM oleic acid, OAG or LPA, as indicated.
The hem1Δ strain transformed by the plasmid pPW344 [2μ URA3 4×UPRE-lacZ (Patil et al., 2004)] is grown in liquid medium (YPG^A, YPG, or YPG+200 μM compound to be tested), under aerobic conditions, with shaking at 28° C. for 7 hours, from an initial cell concentration of 2×10^6 cells/ml. At the conclusion of the culture, 10^8 cells are collected in order to quantify the β-galactosidase (β-gal) activity resulting from the expression of the lacZ transgene (in the case of UPR activation). […] For each sample, β-gal activity (U) is calculated using the formula U=(1000×[OD420 nm−(1.75×OD550 nm)])/(t×V×OD600 nm), expressed in arbitrary units.

With `CCCCCCCC/C=C\CCCCCCCC(=O)OC[C@@H](O)COP(=O)(O)O` [LPA, 1-oleoyl-sn-glycerol-3-phosphate] the “Effect on fatty acid composition of membrane phospholipids” value [1] was “act directly on lipid content”, the “Maturation of proinsulin to insulin” value (MIN6 pancreatic β-cells) was “only mannide monooleate restores” and the “UPR induction level (β-galactosidase activity)” value [2] was “reduce the unfolded protein response (UPR)”.
In the case of `CCCCCCCC/C=C\CCCCCCCC(=O)OC[C@H](CO)OC(C)=O` [OAG, 1-oleoyl-2-acetyl-sn-glycerol], the “Effect on fatty acid composition of membrane phospholipids” value [1] is reported as “without restoring a normal diunsaturated phospholipid composition”, the “Maturation of proinsulin to insulin” value (MIN6 pancreatic β-cells) is reported as “only mannide monooleate restores” and the “UPR induction level (β-galactosidase activity)” value [2] is reported as “reduce the unfolded protein response (UPR)”.
